In US20080249072A1, “Use of Low Dose Chemically Modified Tetracylines to Reduce Inflammatory Mediators” (priority 2005, published 2008):

Tests used:
Assay type in all cases: cell-based
[1] = tested on: Tumor Necrosis Factor-α (TNF-α); experiment: TNF-α production by human monocytes/macrophages stimulated by CRP/Oxid. LDL complex (ELISA)
Experimental: (§1) Experiments were conducted to compare the efficacy of two tetracycline compounds, doxycycline and CMT-3, on reducing the production of inflammatory mediators, TNF-α, IL-6 and MCP-1 produced by monocytes/macrophages. Doxycycline is a well known tetracycline antibiotic. CMT-3 is a non-antibacterial 4-dedimethylamino derivative of sancycline. See above. The experiments utilized a cell culture stimulated by biologic factors that cause inflammation, such as the inflammation seen in, for example, coronary and cerebro-vascular disease. Units of human blood were obtained and peripheral blood monocytes were separated by Ficoll-Hypaque gradient centrifugation. Viable human monocytes/macrophages were incubated in cell culture under standard sterile conditions on plastic in RPMI media at 37° C. for 18 hours. The monocytes/macrophages were incubated under the following experimental conditions: • (i) cells alone; • (ii) cells stimulated by c-reactive protein (CRP)/Oxidized LDL cholesterol complex (CRP/Oxid. LDL complex), no tetracycline present; • (iii) cells stimulated by CRP/Oxid. LDL complex with doxycycline at concentrations of 0.7 μg/ml, 5.0 μg/ml and 10.0 μg/ml; and. • (iv) cells stimulated by CRP/Oxid. LDL complex with CMT-3 at concentrations of 0.5 μg/ml, 1.5 μg/ml and 5.0 μg/ml. CRP/Oxid. LDL complex stimulates monocytes/macrophages to secrete excessive levels of cytokines (e.g. IL-1, IL-6, TNF-α, and MCP-1). Excessive levels of cytokines result in the rupture of atheroscleromatus plaques lining coronary and cerebral arteries causing thrombosis, heart attack and stroke. At the end of an 18 hour incubation, the conditioned media were collected and analyzed by ELISA for inflammatory mediators IL-6, TNF-α and MCP-1. The results are described in examples 1-3.

[2] = tested on: Macrophage Chemotactic Protein-1 (MCP-1); experiment: MCP-1 production by human monocytes/macrophages stimulated by CRP/Oxid. LDL complex (ELISA)
Experimental: as §1

Interleukin-6 (IL-6) = experiment: IL-6 production by human monocytes/macrophages stimulated by CRP/Oxid. LDL complex (ELISA)
Experimental: as §1

[3] = all three concentrations tested (0.5, 1.5 and 5.0 μg/ml)
[4] = highest concentration, 5.0 μg/ml

In the case of `NC(=O)C1=C(O)C[C@@H]2C[C@@H]3Cc4cccc(O)c4C(=O)C3=C(O)[C@]2(O)C1=O` [CMT-3, 6-demethyl-6-deoxy-4-dedimethylaminotetracycline], the “TNF-α production at 1.5 μg/ml higher than at 0.5 μg/ml” value ([1]; 1.5 μg/ml versus 0.5 μg/ml) was “about 50%”, the “effect on TNF-α production” value [1, 3] was “reduced TNF-α production” and the “effectiveness in reducing TNF-α among concentrations tested” value [1, 4] was “most effective”. For the same compound, the “MCP-1 production at 1.5 μg/ml higher than at 0.5 μg/ml” value ([2]; 1.5 μg/ml versus 0.5 μg/ml) was 16%, the “effectiveness in reducing MCP-1 among concentrations tested” value [2, 4] was “most effective” and the “IL-6 production at 1.5 μg/ml higher than at 0.5 μg/ml” value (Interleukin-6 (IL-6); 1.5 μg/ml versus 0.5 μg/ml) was 43%. The “effect on IL-6 production” value (Interleukin-6 (IL-6); [3]) was “reduced IL-6 production” and the “effectiveness in reducing IL-6 among concentrations tested” value (Interleukin-6 (IL-6); [4]) was “most effective”.
For `C[C@H]1c2cccc(O)c2C(=O)C2=C(O)[C@]3(O)C(=O)C(C(N)=O)=C(O)[C@@H](N(C)C)[C@@H]3[C@@H](O)[C@@H]21` [doxycycline, reference compound], the “reduction of TNF-α production” value ([1]; 10.0 μg/ml, 18 hour incubation) was “about 94%”, the inhibition at 0.7 µg/mL ([1]; Homo sapiens, 0.7 μg/ml, 18 hour incubation) was ~14% and the inhibition at 5 µg/mL ([1]; Homo sapiens, 5.0 μg/ml, 18 hour incubation) was ~37%. The “inhibition of MCP-1 production” value ([2]; 0.5 μg/ml) was “did not inhibit”, the “inhibition of MCP-1 production” value ([2]; 1.5 μg/ml) was “did not inhibit” and the inhibition at 5 µg/mL ([2]; Homo sapiens, Macrophage, 5.0 μg/ml, read-out: inhibition of production (printed TNF-α, in MCP-1 example)) was ~68%.
